Here are results for three compounds from publication PMC7429544, “Influence of protein (human galectin-3) design on aspects of lectin activity” (Histochemistry and Cell Biology, 2020).

Molecules are shown by their SMILES.

Experiment [1] has as its target T1, Gal-3–8S–Gal-3 (Homo sapiens, UniProt P17931).
T1 construct: gene LGALS3; engineered covalent homodimer: two Gal-3 CRDs joined by the 33-residue Gal-8S linker peptide in one polypeptide, no tail; recombinant from bacteria
In words: isothermal titration calorimetry. Particulars: 25 °C, pH 7.2, 20 mM phosphate, 10 mM NaCl, 2 mM β-mercaptoethanol; one-set-of-sites model; lyophilized protein. The class given is binding. The source says: isothermal titration calorimetry on Gal-3–8S–Gal-3
A general note: In ITC the heat of successive injections is recorded.

For experiment [2], the target named is T2, Gal-3–Gal-3 (Homo sapiens, UniProt P17931).
T2 construct: gene LGALS3; engineered covalent homodimer: two Gal-3 CRDs fused directly C- to N-terminus in one polypeptide, no tail; recombinant from bacteria
T2 sequence (P17931 114-250 limits assumed): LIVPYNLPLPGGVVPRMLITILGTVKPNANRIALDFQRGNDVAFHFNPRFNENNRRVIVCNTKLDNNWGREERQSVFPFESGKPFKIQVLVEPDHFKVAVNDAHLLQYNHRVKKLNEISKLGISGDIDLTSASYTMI
In words: isothermal titration calorimetry. The settings on record: 25 °C, pH 7.2, 20 mM phosphate, 10 mM NaCl, 2 mM β-mercaptoethanol, one-set-of-sites model, dissolved and dialyzed. It counts as binding. The source says: isothermal titration calorimetry on Gal-3–Gal-3

Experiment [3] has as its target T3, Gal-3 (full-length wild-type human galectin-3) (Homo sapiens, UniProt P17931).
T3 construct: gene LGALS3; full-length with N-terminal tail (two Ser phosphorylation sites, nine collagen-like repeats) and CRD; monomeric in solution; biotinylated for tissue sections
In words: isothermal titration calorimetry. It counts as binding. The settings on record: 25 °C, pH 7.2, 20 mM phosphate, 10 mM NaCl, 2 mM β-mercaptoethanol; one-set-of-sites model; lyophilized protein. The text has this:
isothermal titration calorimetry on Gal-3 (full-length wild-type human galectin-3)

Experiment [4] addresses T4, Gal-3 CRD (trGal-3) (Homo sapiens, UniProt P17931).
T4 construct: gene LGALS3; C-terminal carbohydrate recognition domain only, N-terminal tail proteolytically removed; recombinant from bacteria
Description: isothermal titration calorimetry. It counts as binding. Particulars: 25 °C, pH 7.2, 20 mM phosphate, 10 mM NaCl, 2 mM β-mercaptoethanol; one-set-of-sites model; lyophilized protein. The text has this:
isothermal titration calorimetry on Gal-3 CRD (trGal-3)

Experiment [5] addresses T5, Gal-3–8S–Gal-1.
T5 construct: gene LGALS3; engineered heterodimer in one polypeptide: N-terminal Gal-3 CRD, 33-residue Gal-8S linker, Gal-1 CRD; recombinant from bacteria
Description: isothermal titration calorimetry. It counts as binding, Homo sapiens. The settings on record: 25 °C, pH 7.2, 20 mM phosphate, 10 mM NaCl, 2 mM β-mercaptoethanol; one-set-of-sites model; lyophilized protein (first of two preparations). The text has this: isothermal titration calorimetry on Gal-3–8S–Gal-1

The target in experiment [6] is T6, Gal-1–8S–Gal-3.
T6 construct: gene LGALS1; engineered heterodimer in one polypeptide: N-terminal Gal-1 CRD, 33-residue Gal-8S linker, Gal-3 CRD; recombinant from bacteria
Description: isothermal titration calorimetry. The class given is binding, Homo sapiens. Particulars: 25 °C, pH 7.2, 20 mM phosphate, 10 mM NaCl, 2 mM β-mercaptoethanol; one-set-of-sites model; lyophilized protein (first of two preparations). The source says:
isothermal titration calorimetry on Gal-1–8S–Gal-3

The target in experiment [7] is T7, Gal-1–Gal-3.
T7 construct: gene LGALS1; engineered heterodimer in one polypeptide: N-terminal Gal-1 CRD fused directly to Gal-3 CRD; recombinant from bacteria
Description: isothermal titration calorimetry. The class given is binding, Homo sapiens. The settings on record: 25 °C, pH 7.2, 20 mM phosphate, 10 mM NaCl, 2 mM β-mercaptoethanol; one-set-of-sites model; protein precipitated, dissolved and dialyzed. The source says:
isothermal titration calorimetry on Gal-1–Gal-3

In experiment [8] the target is T8, Gal-3–Gal-1.
T8 construct: gene LGALS3; engineered heterodimer in one polypeptide: N-terminal Gal-3 CRD fused directly to Gal-1 CRD; recombinant from bacteria
In words: isothermal titration calorimetry. It counts as binding, Homo sapiens. Particulars: 25 °C, pH 7.2, 20 mM phosphate, 10 mM NaCl, 2 mM β-mercaptoethanol; one-set-of-sites model; protein precipitated, dissolved and dialyzed. The text has this: isothermal titration calorimetry on Gal-3–Gal-1

The target of experiment [9] is T2, Gal-3–Gal-3. In words: inhibition of biotinylated lectin staining, fixed murine jejunum sections. Particulars: 0.5 mM Lac as part of glycocluster; labelled lectin 0.25 µg/mL.
Experiment [10] has as its target T3, Gal-3 (full-length wild-type human galectin-3). The description is as above. The settings on record: 0.5 mM Lac as part of glycocluster; labelled lectin 4 µg/mL.

T3 sequence (P17931 2-250): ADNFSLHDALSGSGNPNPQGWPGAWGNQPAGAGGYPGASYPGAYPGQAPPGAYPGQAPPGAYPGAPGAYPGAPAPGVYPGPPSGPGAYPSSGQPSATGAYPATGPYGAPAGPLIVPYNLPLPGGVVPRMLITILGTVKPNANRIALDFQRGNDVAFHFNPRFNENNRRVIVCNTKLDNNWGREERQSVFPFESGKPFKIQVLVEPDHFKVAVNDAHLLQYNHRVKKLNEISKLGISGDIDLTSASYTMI
T1 sequence (P17931 114-250 limits assumed): as the sequence (P17931 114-250 limits assumed) above
T4 sequence (P17931 114-250 limits assumed): as above

Regarding `CC(=O)N[C@H]1C(O)O[C@H](CO)[C@H](O)[C@@H]1O[C@@H]1O[C@H](CO)[C@H](O)[C@H](O)[C@H]1O` (some centres unmarked) [Galβ1,3GalNAc], the Kd (commonly the constant that tells how readily two partners part at equilibrium) was determined as 157 ± 4.69 µM in [1], 288 ± 3.01 µM in experiment [2] (protein precipitated), 222 ± 18.5 µM in experiment [3] and 264 ± 13.7 µM in experiment [4].
Consider `CC(=O)N[C@H]1C(O)O[C@H](CO)[C@@H](O[C@@H]2O[C@H](CO)[C@H](O)[C@H](O)[C@H]2O)[C@@H]1O` (some centres unmarked) [LacNAc], for which the Kd is 60 ± 1.1 µM in experiment [5]; 29.4 ± 0.92 µM in experiment [1]; 36.2 ± 0.78 µM in experiment [2] (protein precipitated with ammonium sulfate); 37.5 ± 0.48 µM in [3]; 48 ± 1.71 µM in [6]; 59 ± 1.45 µM in [7]. The Kd in experiment [8] worked out at 49.7 ± 0.95 µM; in experiment [4] it was 45.6 ± 1.64 µM.
Take `OC[C@H]1O[C@@H](O[C@H]2[C@H](O)[C@@H](O)[C@H](n3cc(COc4ccc(C(=C(c5ccc(OCc6cn([C@@H]7O[C@H](CO)[C@@H](O[C@@H]8O[C@H](CO)[C@H](O)[C@H](O)[C@H]8O)[C@H](O)[C@H]7O)nn6)cc5)c5ccc(OCc6cn([C@@H]7O[C@H](CO)[C@@H](O[C@@H]8O[C@H](CO)[C@H](O)[C@H](O)[C@H]8O)[C@H](O)[C@H]7O)nn6)cc5)c5ccc(OCc6cn([C@@H]7O[C@H](CO)[C@@H](O[C@@H]8O[C@H](CO)[C@H](O)[C@H](O)[C@H]8O)[C@H](O)[C@H]7O)nn6)cc5)cc4)nn3)O[C@@H]2CO)[C@H](O)[C@@H](O)[C@H]1O` [compound 2]: the staining inhibition entry in experiment [9] is “extent of binding of the Gal-3–Gal-3 homodimer was less potently reduced”; in experiment [10] it was “Signal for binding of Gal-3 was strongly reduced in cells of the villi”.
